# Test results from patent US8758810B2, “Liposome compositions” (priority 2005, dated 2014).
# Tested on: AsPC-1 cells
# Assay: Cytotoxicity test for oxaliplatin (WST-1 kit)
# Type: cell-based
# Details: l-OHP solutions 48 hours
# Procedure: An oxaliplatin (l-OHP) solution was prepared by dissolving oxaliplatin in a 9% sucrose solution (sucrose/distilled water) at a concentration of 8 mg/ml. The cell viability was determined using a commercially available cytotoxicity assay kit (WST-1 kit, Wako Pure Chemical Industries, Ltd., Japan).
# AsPC-1 cells (provided by Dr. Hironobu Yanagie of Research Center for Advanced Science and Technology, the University of Tokyo, Japan) cultured in RPMI 1640 medium supplemented with 10% FCS (fetal calf serum; SIGMA, USA) were treated with concentrations of l-OHP solutions [200×(1/2)^(0-10) nM] at 37° C. in 5% CO2 for 48 hours. Then, the medium was removed and a substrate (WST-1, Cell Counting Kit, Dojindo Laboratories, Japan) was added to the cells which were incubated at 37° C. in 5% CO2 for 2 hours to develop the colored product. The developed color was measured at an absorbance of 450 nm (reference wavelength: 620 nm) on an Immuno Mini NJ-2300 (Cosmo Bio Co., Ltd., Japan).
structure (smiles),measurement,value
"O=C1[O][Pt]2([NH]C3CCCCC3[NH]2)[O]C1=O [l-OHP, cis-[(1R, 2R)-1,2-cyclohexanediamine-N,N′][oxalato(2)-O,O′]platinum]",cytotoxicity LD50,> 8 µg/mL
